This is an account of results in PMC4237513 (European Journal of Medicinal Chemistry, 2014).

pEC50: −log10 of the molar value. Like-named read-outs stand apart in the source and are kept apart here. Where only a bound is given, the exact number is not on record here.

One data set deals with dengue virus (DENV). The experiment in a line: microbe, parasite or virus in culture. It counts as cell-based. The following applies: for pEC50: read-out: Dengue EC50.
A further data set relates to yellow fever virus (YFV). The experiment in a line: microbe, parasite or virus in culture. In kind it is cell-based. The following applies: read-out: Yellow fever EC50.
A further data set is described as follows: in vitro. The conditions noted are these: chlorocebus sabaeus.
Where [1] appears, read: Yellow fever virus, Vero B, 168 h.

With `Cc1ccc(NC(=O)c2nc[nH]c2C(=O)Nc2ccc(F)cc2)c(-c2cc(C)n[nH]2)c1` [15a, N^5-(4-fluorophenyl)-N^4-(4-methyl-2-(3-methyl-1H-pyrazol-5-yl)phenyl)-1H-imidazole-4,5-dicarboxamide], the pEC50 in the data set with dengue virus (DENV) (Dengue virus, Vero B, 168 h) was 5.60; with yellow fever virus (YFV) (setting [1]), 5.47; in the data set on yellow fever virus (YFV) it was 5.46. The CC50 in the data set “in vitro” (Dengue CC50) and in “in vitro” (Yellow fever CC50) was > 120 µM throughout.
As for `Cc1cc(-c2ccccc2NC(=O)c2nc[nH]c2C(=O)Nc2ccc(F)cc2)[nH]n1` [15b, N^5-(4-fluorophenyl)-N^4-(2-(3-methyl-1H-pyrazol-5-yl)phenyl)-1H-imidazole-4,5-dicarboxamide], the pEC50 in the data set on dengue virus (DENV) (Dengue virus, Vero B, 168 h) is 5.22; in the data set on yellow fever virus (YFV) (setting [1]), 5.73. In “in vitro” (Dengue CC50), the CC50 at 168 h came out at 21.7 µM. Also, the CC50 in the data set “in vitro” (Yellow fever CC50) was > 121 µM.
In the case of `O=C(NCc1ccccc1-c1ccncc1)c1nc[nH]c1C(=O)Nc1ccc(F)cc1` [15c, N^5-(4-fluorophenyl)-N^4-(2-(pyridin-4-yl)benzyl)-1H-imidazole-4,5-dicarboxami-de], the pEC50 with dengue virus (DENV) (Dengue virus, Vero B, 168 h) is 5.72; in the data set with dengue virus (DENV), 5.71; in the data set on yellow fever virus (YFV) (setting [1]), 5.41. In the data set “in vitro” (Dengue CC50), this compound returned a CC50 at 168 h of 50.1 µM. Moreover, the CC50 in the data set “in vitro” (Yellow fever CC50) was > 120 µM.
Turning to `O=C(NCc1ccccc1-c1ccsc1)c1nc[nH]c1C(=O)Nc1ccc(F)cc1` [15d, N^5-(4-fluorophenyl)-N^4-(2-(thiophen-3-yl)benzyl)-1H-imidazole-4,5-dicarbox amide], the pEC50 with dengue virus (DENV) (Dengue virus, Vero B, 168 h) was 5.05; in the data set on yellow fever virus (YFV) (setting [1]) it was 5.58. Also, the CC50 at 168 h in the data set “in vitro” (Dengue CC50) worked out at 17.3 µM; in “in vitro” (Yellow fever CC50) it was 34.5 µM.
With `O=C(NCc1ccc(-c2cccnc2)cc1)c1nc[nH]c1C(=O)Nc1ccc(F)cc1` [15e, N^5-(4-fluorophenyl)-N^4-(4-(pyridin-3-yl)benzyl)-1H-imidazole-4,5-dicarboxamide], the pEC50 is 4.38 in the data set with dengue virus (DENV) (Dengue virus, Vero B, 168 h) and 4.93 in the data set on yellow fever virus (YFV) (setting [1]). For the same compound, the results for the CC50 in “in vitro” (Dengue CC50) and in the data set “in vitro” (Yellow fever CC50) were > 120 µM and > 118 µM, respectively.
Turning to `O=C(NCc1ccc(-c2ccsc2)cc1)c1nc[nH]c1C(=O)Nc1ccc(F)cc1` [15f, N^5-(4-fluorophenyl)-N^4-(4-(thiophen-3-yl)benzyl)-1H-imidazole-4,5-dicarboxamide], the pEC50 in the data set with dengue virus (DENV) (Dengue virus, Vero B, 168 h) is 4.47; with yellow fever virus (YFV) (setting [1]), 4.54. The CC50 at 168 h in “in vitro” (Dengue CC50) was 20.2 µM. Also, the CC50 in the data set “in vitro” (Yellow fever CC50) was > 119 µM.
Regarding `O=C(NCc1ccc(-c2ccncc2)cc1)c1nc[nH]c1C(=O)Nc1ccc(F)cc1` [15g, N^5-(4-fluorophenyl)-N^4-(4-(pyridin-4-yl)benzyl)-1H-imidazole-4,5-dicarboxamide], the pEC50 in the data set with dengue virus (DENV) (Dengue virus, Vero B, 168 h) is < 3.92; in the data set with yellow fever virus (YFV) (setting [1]), < 3.92. The CC50 in the data set “in vitro” (Dengue CC50) and in “in vitro” (Yellow fever CC50) was > 120 µM each time.
As to `Cc1ccc(NC(=O)c2nc[nH]c2C(=O)Nc2ccc(F)cc2)c(-c2ccsc2)c1` [15h, N^5-(4-fluorophenyl)-N^4-(4-methyl-2-(thiophen-3-yl)phenyl)-1H-imidazole-4,5-dicarboxamide], the pEC50 in the data set with dengue virus (DENV) (Dengue virus, Vero B, 168 h) is 4.31; with yellow fever virus (YFV) (setting [1]) it was < 3.92. The values for the CC50 in “in vitro” (Dengue CC50) and in “in vitro” (Yellow fever CC50) were > 117 µM and > 119 µM, respectively.
Consider `Cc1ccc(NC(=O)c2nc[nH]c2C(=O)Nc2ccc(F)cc2)c(-c2ccco2)c1` [15i, N^5-(4-fluorophenyl)-N^4-(2-(furan-2-yl)-4-methylphenyl)-1H-imidazole-4,5-dicarboxamide], for which the pEC50 in the data set with dengue virus (DENV) (Dengue virus, Vero B, 168 h) was < 3.91. The CC50 in “in vitro” (Dengue CC50) is > 124 µM.
`Cc1ccc(NC(=O)c2nc[nH]c2C(=O)Nc2ccccc2)c(-c2ccsc2)c1` [15j, N^4-(4-methyl-2-(thiophen-3-yl)phenyl)-N^5-phenyl-1H-imidazole-4,5-dicarboxamide]: the pEC50 in the data set with dengue virus (DENV) (Dengue virus, Vero B, 168 h) was < 3.91; in the data set on yellow fever virus (YFV) (setting [1]) it was 5.04. Moreover, the CC50 is > 124 µM in the data set “in vitro” (Dengue CC50) and > 120 µM in “in vitro” (Yellow fever CC50).
On to `Cc1ccc(NC(=O)c2[nH]cnc2C(=O)Nc2ccc(C)cc2-c2ccsc2)cc1` [15k, N^4-(4-methyl-2-(thiophen-3-yl)phenyl)-N^5-(p-tolyl)-1H-imidazole-4,5-dicarboxamide], for which the pEC50 in the data set on dengue virus (DENV) (Dengue virus, Vero B, 168 h) was 5.69; with yellow fever virus (YFV) (setting [1]), < 3.92. For the same compound, the CC50 in “in vitro” (Dengue CC50) is > 50 µM; in “in vitro” (Yellow fever CC50), > 120 µM.
For `Cc1ccc(NC(=O)c2[nH]cnc2C(=O)Nc2ccc(C)cc2-c2ccco2)cc1` [15l, N^4-(2-(furan-2-yl)-4-methylphenyl)-N^5-(p-tolyl)-1H-imidazole-4,5-dicarboxamide], in the data set with dengue virus (DENV) (Dengue virus, Vero B, 168 h), the pEC50 was 5.46. Moreover, the CC50 in “in vitro” (Dengue CC50) is > 125 µM.
Take `Cc1ccc(NC(=O)c2nc[nH]c2C(=O)NCc2ccccc2)c(-c2ccco2)c1` [15m, N^5-benzyl-N^4-(2-(furan-2-yl)-4-methylphenyl)-1H-imidazole-4,5-dicarboxamide]: in the data set with dengue virus (DENV), the “DENV inhibitory activity in words” value is reported as “annihilated the inhibitory properties”. Besides, the pEC50 in the data set on dengue virus (DENV) (Dengue virus, Vero B, 168 h) was < 3.90. In the data set “in vitro” (Dengue CC50), the CC50 was > 125 µM.
As to `Cc1ccc(NC(=O)c2nc[nH]c2C(=O)NCCc2ccc(F)cc2)c(-c2ccco2)c1` [15n, N^5-(4-fluorophenethyl)-N^4-(2-(furan-2-yl)-4-methylphenyl)-1H-imidazole-4,5-dicarboxamide], in the data set on dengue virus (DENV) (Dengue virus, Vero B, 168 h), the pEC50 is 5.42. The CC50 in the data set “in vitro” (Dengue CC50) is > 116 µM.
Turning to `Cc1cnc(NC(=O)c2[nH]cnc2C(=O)Nc2ccccc2)c(-c2ccc(C)s2)c1` [15o, N^5-(5-methyl-3-(5-methylthiophen-2-yl)pyridin-2-yl)-N^4-phenyl-1H-imidazole-4,5-dicarboxamide], the “DENV inhibitory activity in words” value in the data set on dengue virus (DENV) was “inactive”. Also, the pEC50 is < 3.92 in the data set on dengue virus (DENV) (Dengue virus, Vero B, 168 h) and < 3.92 with yellow fever virus (YFV) (setting [1]). Moreover, in the data set “in vitro” (Dengue CC50), the CC50 at 168 h was found to be 26.4 µM. The CC50 in the data set “in vitro” (Yellow fever CC50) was > 119 µM.
Consider `O=C(NCc1ccc(-c2ccncc2)cc1)c1nccnc1C(=O)Nc1ccc(F)cc1` [20a, N^2-(4-fluorophenyl)-N^3-(4-(pyridin-4-yl)benzyl) pyrazine-2,3-dicarboxamide], for which the “fold increase in anti-DENV potency” value with dengue virus (DENV) was found to be 2 fold. Also, the pEC50 was 6.03 with dengue virus (DENV) (Dengue virus, Vero B, 168 h) and 5.13 in the data set on yellow fever virus (YFV) (setting [1]). The values for the CC50 in the data set “in vitro” (Dengue CC50) and in the data set “in vitro” (Yellow fever CC50) were > 118 µM and > 120 µM, respectively.
For `Cc1ccc(NC(=O)c2nccnc2C(=O)Nc2ccc(F)cc2)c(-c2cccnc2)c1` [20b, N^2-(4-fluorophenyl)-N^3-(4-methyl-2-(pyridin-3-yl)phenyl) pyrazine-2,3-dicarboxamide], the “DENV inhibitory activity in words” value in the data set with dengue virus (DENV) is recorded as “strongly inhibiting”. Moreover, the pEC50 in the data set with dengue virus (DENV) (Dengue virus, Vero B, 168 h) is 6.03; with yellow fever virus (YFV) (setting [1]), 4.88. For the same compound, the CC50 in “in vitro” (Dengue CC50) and in the data set “in vitro” (Yellow fever CC50) was > 118 µM in each case.
For the compound `O=C(NCc1ccc(-c2cccnc2)cc1)c1nccnc1C(=O)Nc1ccc(F)cc1` [20c, N^2-(4-fluorophenyl)-N^3-(4-(pyridin-3-yl)benzyl) pyrazine-2,3-dicarboxamide], the pEC50 with dengue virus (DENV) (Dengue virus, Vero B, 168 h) is 5.52; in the data set with yellow fever virus (YFV) (setting [1]) it was 5.05. Further, the CC50 in the data set “in vitro” (Dengue CC50) was > 115 µM; in “in vitro” (Yellow fever CC50), > 116 µM.
Take `O=C(Nc1ccc(F)cc1)c1nccnc1C(=O)Nc1ccccc1-c1ccncc1` [20d, N^2-(4-fluorophenyl)-N^3-(2-(pyridin-4-yl)phenyl) pyrazine-2,3-dicarboxamide]: the pEC50 in the data set with dengue virus (DENV) (Dengue virus, Vero B, 168 h) was 4.93; in the data set with yellow fever virus (YFV) (setting [1]), 5.09. Moreover, the CC50 in the data set “in vitro” (Dengue CC50) was > 117 µM; in the data set “in vitro” (Yellow fever CC50) it was > 123 µM.
In the same order, the values of `O=C(Nc1ccc(F)cc1)c1nccnc1C(=O)Nc1ccccc1-c1cccnc1` [20e, N^2-(4-fluorophenyl)-N^3-(2-(pyridin-3-yl)phenyl) pyrazine-2,3-dicarboxamide] are 4.63, 4.32, > 120 µM and > 119 µM.
